Like-named read-outs stand apart in the source and are kept apart here.
Key:
HepG2 cells = experiment: MTT assay, cytotoxicity in HepG2; type: cell-based; conditions: Homo sapiens, mean ± SEM, n = 3, read-out: EC50 (effective concentration)
Procedure: (§1) The HepG2 cell line was purchased from the American Type Culture Collection (ATCC® HB-8065™). The cells were cultured in Minimum Essential Medium Eagle (MEME) (Sigma–Aldrich Co. (St. Louis, MO, USA)). Normal murine embryonic fibroblasts, Balb/c 3T3 clone A31 cell line (gift from Department of Swine Diseases of the National Veterinary Research Institute in Pulawy) was cultured in Dulbecco’s Modified Eagle’s Medium (DMEM) (Invitrogen Corporations (Paisley, UK)). The media were supplemented with 10% BCS (Balb/c 3T3), 10% FBS (HepG2), 1% L-glutamine, and 1% antibiotic solution. The cells were maintained in 75 cm^2 cell culture flasks in humidified incubator at 37 °C, in an atmosphere of 5% CO2. […] The initial cell viability was determined with the trypan blue exclusion test. […]
(§2) The concentration ranges of the drugs were chosen according to their solubility and their plasma level. […] The cytotoxicity was assessed after 24 and 48 h of exposure of cell lines or after 12 and 24 h exposure of PHH. […]
(§3) The metabolic activity of living cells was assessed by measuring the activity of dehydrogenases. […] The plate was shaken for 15 min at room temperature and transferred to a microplate reader to measure the absorbance at 570 nm, using a blank as a reference. Cytotoxicity was expressed as a percentage of the negative control (0.1% or 0.2% DMSO).

[1] = in vivo; cited from earlier work
Balb/c 3T3 cells = experiment: MTT assay, cytotoxicity in Balb/c 3T3; type: cell-based; conditions: Mus musculus, BALB/c3T3, Balb/c 3T3, MTT, mean ± SEM, n = 3, read-out: EC50 (effective concentration)
Procedure: as §1, §2, §3

cell lines = conditions: cited from earlier work
[2] = test system: primary human hepatocytes (PHH); experiment: Biotransformation of SAL and metabolites in medium of PHH (LC-MS/MS); type: in vitro ADME
Procedure: Cryopreserved PHH were purchased from the Primacyt GmbH (Schwerin, Germany). Two different lots were chosen based on CYP activity. The donor was a person. The post-thaw viability was 94.6% for lot HH160531 (used in two repetitions) and 85.0% for lot HH130805. The initial cell viability was determined with the trypan blue exclusion test. The cells were thawed and purified using the Plating and Thawing Kit (Primacyt GmbH). Purified hepatocytes were resuspended in Hepatocyte Plating Medium (Primacyt GmbH) and seeded on collagen-coated 96-well plates at a density of 9 × 10^5 cell/mL and incubated at 37 °C with 5% CO2. After 6 h of incubation, the medium was removed and the cells were washed with PBS. […]
The medium samples from microplate wells were collected for identifying SAL metabolites and normalized to a cell number. An aliquot of 200 µL of each sample was measured to Eppendorf tube. […] The dry residue was reconstituted in 50% acetonitrile and analyzed with LC-MS/MS. […]
SAL (m/z 773.4 to m/z 431.3) was monitored in multiple reaction monitoring (MRM) modes. […]
The signals for further analysis were selected with the LightSight 2.3 software. […] These MRM transitions (with 20 chromatographic peaks) were then quantified with Multiquant 2.1. software. Quantitative analysis was performed for SAL. […]

For CC[C@@H](C(=O)[C@@H](C)[C@@H](O)[C@H](C)[C@@H]1O[C@@H]([C@@H](CC)C(=O)O)CC[C@@H]1C)[C@H]1O[C@]2(C=C[C@@H](O)[C@]3(CC[C@@](C)([C@H]4CC[C@](O)(CC)[C@H](C)O4)O3)O2)[C@H](C)C[C@@H]1C [SAL, salinomycin], the EC50 (HepG2 cells; 24 h exposure) is given as 15.4 ± 1.7 µg/mL, the EC50 (HepG2 cells; 48 h exposure) is given as 12.9 ± 1.4 µg/mL and the “unchanged SAL in excreta, share of administered dose” value [1] is given as 2%. For the same molecule, the EC50 (Balb/c 3T3 cells; 24 h exposure) was 10.4 ± 1.4 µg/mL, the EC50 (Balb/c 3T3 cells; 48 h exposure) was 4.3 ± 0.9 µg/mL and the EC50 (cell lines) was 0.1 to 30 µM. The “EC50 values, cytotoxicity to cell lines” value (cell lines) was 0.08 to 22.5 µg/mL, the “SAL metabolised, share of the dose” value ([2]; PHH) was “up to 90%” and the “maximum percentage of bio-transformed SAL” value ([2]; PHH co-exposed with tiamulin) was 25%.
